“Also recorded” adds a separate entry of the source. Read-outs that look alike come from different tables or passages of the source.

Assay type in all cases: cell-based
The test system of series [1] is human internal mammary artery smooth muscle cells (IMA SMC). Briefly: Inhibition of cell proliferation and recovery, human IMA SMC. An excerpt: (§1) Smooth muscle cells (SMC) were obtained under aseptic conditions from porcine abdominal aortas, and human internal mammary arteries (IMA). Specimens from the operating room were transferred on ice to the tissue culture room. Each artery was cut open and the endothelial surface mechanically scraped. The vessels were then cut into 2 mm^2 fragments which were placed in culture dishes with Dulbecco's modified Eagle's medium (DMEM) supplemented with 15% (v/v) fetal calf serum (FCS), 100 u/ml penicillin, 100 μg/ml streptomycin, and 0.2M L-glutamine. The tissue fragments were then placed in an incubator at 37° C. under 9% CO2 atmosphere until SMC outgrowth was detected (typically within 3-7 days). […] For experiments testing the effect of tyrphostins on growth inhibition and recovery (see below), SMC from passages 1-3 were replated in 15 mm wells pretreated with 3 μg/cm^2 fibronectin (Biological Industries, Kibbutz Beit Haemek, Israel) at 15,000 cells/well.
Inhibition of cell proliferation and recovery: Monolayer cell growth inhibition and recovery experiments were repeated 3 or 4 times. Each experiment was performed in triplicate. Approximately 15,000 cells (SMC or EC) in 1 ml of culture medium supplemented with 15% FCS were seeded on day 0 in 15 mm-wells precoated with fibronectin. Cultures were treated with a tyrphostin (10 μM) dissolved in 0.1% DMSO on days 1 and 3. On day 6, cultures were washed and the cells allowed to recover. Typically cells were counted on days 3 and 5 for inhibition, and on days 7, 10 and 15 for recovery, other schedules were also employed as reported below. The medium supplemented with serum (M-199 with ECGS for EC, and DMEM for SMC) was changed every other day throughout the experiment.
FIG. 9 presents the maximal inhibitory and recovery effects on human IMA SMC growth inflicted by 10 or 25 μM of AG1851 and AG1295. Cells were grown in the presence of the specified tyrphostins and were counted after seven days in culture. On day 7 the cultures were washed and the cells allowed to recover. Seven days later they were counted for recovery. The bar graph show the maximal inhibition and the recovery in each experiment and for controls.

Series [2] has as its system porcine aortic smooth muscle cells (SMC). As to the kind of experiment: Inhibition of cell proliferation and recovery, porcine SMC. The following applies: for inhibitory effect on porcine SMC growth (in words) / toxicity on SMC / inhibition at 10 µM: 10 μM; for inhibitory effect on porcine SMC growth (in words): FIGS. 3-7; for toxicity on SMC / reversibility of the inhibitory effect / recovery of SMC growth after washout: porcine SMC; for inhibition at 10 µM: Sus scrofa; for reversibility of the inhibitory effect / recovery of SMC growth after washout: cultures washed, cells allowed to recover. The procedure:
as §1, with “The vessels were then cut into 2 mm^2 fragments which were placed in culture dishes with Dulbecco's modified Eagle's medium (DMEM) supplemented with 15% (v/v) fetal calf serum (FCS), 100 u/ml penicillin, 100 μg/ml streptomycin, and 0.2M L-glutamine.” left out
(§2) Inhibition of cell proliferation and recovery: Monolayer cell growth inhibition and recovery experiments were repeated 3 or 4 times. Each experiment was performed in triplicate. […] Cultures were treated with a tyrphostin (10 μM) dissolved in 0.1% DMSO on days 1 and 3. On day 6, cultures were washed and the cells allowed to recover. Typically cells were counted on days 3 and 5 for inhibition, and on days 7, 10 and 15 for recovery, other schedules were also employed as reported below.

Series [3] deals with porcine endothelial cells (EC). Briefly: Inhibition of cell proliferation and recovery, porcine EC. The following applies: Sus scrofa, Endothelial cell; FIG. 8 experiment; 10 μM; read-out: maximal inhibitory effect on porcine EC proliferation.
Excerpt: Endothelial cells (EC) were isolated from porcine carotid arteries. Using aseptic procedure, both common carotid arteries were isolated, and the distal end of each artery was cannulated through an arteriotomy and ligated. The arteries were then perfused with phosphate buffered saline (PBS) and the proximal end ligated isolating a 5-7 cm long blood-free portion of the artery. The isolated portion of each artery was filled with PBS containing calcium and magnesium and 0.1% collagenase (Boehringer Manneheim, Germany). The segments were excised and incubated for 10 min at 37° C. in sterile bottles containing PBS. […] Cells were seeded on fibronectin-coated dishes at a seeding density of 15,000 cells/well and incubated at 37° C. in 9% CO2. ECGS (25 μg/ml) was added every other day until confluence was observed, typically within 6-8 days.
as §2

Where [4] appears, read: 120 h, by day 5 (day given for AG1295 and AG1992), read-out: reduction in SMC count / inhibition of SMC growth over control.
The mark [5] stands for this setting: Table 2, read-out: mean reduction in SMC count compared to control cells (maximal inhibition in SMC growth).

For the compound `Cc1nc2cc3nc(-c4ccccc4)cnc3cc2n1C` [AG1851], the “reversibility of the effect on IMA SMC upon removal of the tyrphostin” value in series [1] (25 μM) is “completely reversible”. For the same compound, the inhibition at 25 µM in series [1] (Homo sapiens, 120 h, read-out: mean reduction / inhibition of IMA SMC proliferation compared to untreated or DMSO-treated cells) was 54%. Moreover, in series [2], the “inhibitory effect on porcine SMC growth (in words)” value is on record as “very potent growth inhibition effect; also recorded: most effective inhibitory response; also recorded: highly effective in blocking proliferation”, the “toxicity on SMC” value was “without having a substantial toxic effect; also recorded: low lasting toxicity” and the “reversibility of the inhibitory effect / recovery of SMC growth after washout” value was “completely reversible; also recorded: normal cell growth appeared immediately after treatment with AG1851 was discontinued”. Moreover, in series [2] (setting [4]), the inhibition at 10 µM was found to be 79%. In series [2] (FIG. 6 experiment, read-out: maximal inhibitory effect on porcine SMC proliferation), the inhibition at 10 µM was 78%. The inhibition at 10 µM in series [2] (setting [5]) amounted to 79%.
On to `Cc1nc2cc3nc(-c4cccs4)cnc3cc2n1C` [AG1992], for which the “inhibitory effect on porcine SMC growth (in words)” value in series [2] was “very potent growth inhibition effect; also recorded: very effective proliferation inhibitors”. Also, in series [2], the “toxicity on SMC” value is given as “low lasting toxicity”. Further, the inhibition at 10 µM was determined as 87% in series [2] (setting [4]); 89% in series [2] (FIG. 7 experiment, read-out: maximal inhibitory effect on porcine SMC proliferation); 87% in series [2] (setting [5]); 52% in series [3]. Also, in series [2], the “reversibility of the inhibitory effect / recovery of SMC growth after washout” value is “completely reversible”.

Source of the values: patent US5932580A, “PDGF receptor kinase inhibitory compounds their preparation and compositions” (priority 1997, dated 1999).
